Entries after “also recorded” stand apart in the source; their conditions may differ.
Legend:
B16-F10 cells = test: Cell viability assay (MTT); format: cell-based, murine; conditions: 48 h
Method: Cell viability was evaluated using 3-(4,5-dimethylthiazol-2-yl)-2,5-diphenyltetrazolium bromide (MTT). After treatment of B16-F10 cells with each drug for 48 h, cells were washed with phosphate-buffered saline (PBS) and incubated for 2 h in the culture medium containing 1 mg∙mL^−1 MTT (Amresco, Solon, OH, USA). The medium was discarded by aspiration, the formazan dye deposited inside the cells was extracted with isopropanol, and absorbance was measured at 595 nm using a Spectrostar Nano microplate reader.

[1] = tested on: tyrosinase (TYR) activity in B16-F10 cells; test: Cellular TYR activity assay (lysates of treated cells); format: cell-based, murine; conditions: 100 nM α-MSH, 24 h, cell lysates
Method: After B16-F10 cells were treated with drug and/or α-MSH, the TYR activity of cell extracts was determined by an indirect spectrophotometric method to monitor dopachrome formation with L-tyrosine plus L-DOPA as the substrates. Total cellular protein was extracted from the treated cells using a lysis buffer of 10 mM Tris-HCl buffer (pH 7.4) containing 120 mM NaCl, 25 mM KCl, 2.0 mM EDTA, 1.0 mM EGTA, 0.5% Triton X-100, and a protease inhibitor cocktail (Roche, Mannheim, Germany) at 4 °C, followed by centrifugation at 13,000× g for 15 min. The TYR activity assay mixture (200 μL) consisting of 100 mM sodium phosphate buffer (pH 6.8), 1.0 mM L-tyrosine, and 42 μΜ L-DOPA was incubated with 40 μg cellular protein extract at 37 °C, and changes in absorbance at 475 nm over time were measured using a Spectrostar Nano microplate reader.

[2] = tested on: TYR, TYRP1, DCT and MITF mRNA in B16-F10 cells; test: qRT-PCR analysis of melanogenic gene mRNA; format: cell-based, murine; conditions: 100 nM α-MSH, 12 h, normalized to GAPDH
Method: After B16-F10 cells were treated with drug and/or α-MSH, cellular RNA was extracted using an RNeasy kit (Qiagen, Valencia, CA, USA) and the complementary DNA (cDNA) was synthesized by reverse transcription using a High-Capacity cDNA Archive Kit (Applied Biosystems, Foster City, CA, USA). qRT-PCR was conducted using a StepOnePlus™ Real-Time PCR System (Applied Biosystems). The reaction mixture (20 μL) comprised SYBR® Green PCR Master Mix (Applied Biosystems), 60 ng cDNA, and 2 pmol gene-specific primer sets (Macrogen, Seoul, Korea).
The reaction protocol was as follows: initial incubation at 50 °C for 2 min; DNA polymerase activation at 95 °C for 15 min; and annealing and extension at 60 °C for 1 min. In each PCR run, the melting curve was checked to confirm the homogeneity of the PCR product. The mRNA expression levels of the gene of interest were determined using the comparative Ct method, and normalized to the internal reference GAPDH [59]. In this method, Ct is defined as the number of PCR cycles required for the signal to exceed the threshold. Fold changes in the test group compared to the control group were calculated as 2^−ΔΔCt, where ΔΔCt = ΔCt(test) − ΔCt(control) = [Ct(gene, test) − Ct(reference, test)] − [Ct(gene, control) − Ct(reference, control)].

human TYR = target: T1, human TYR (Homo sapiens, UniProt P14679); test: In vitro TYR catalytic activity assay, lysate of HEK293-TYR cells; format: biochemical
T1 construct: expressed in transfected cells; Triton X-100 lysate supernatant
T1 sequence (P14679 19-529): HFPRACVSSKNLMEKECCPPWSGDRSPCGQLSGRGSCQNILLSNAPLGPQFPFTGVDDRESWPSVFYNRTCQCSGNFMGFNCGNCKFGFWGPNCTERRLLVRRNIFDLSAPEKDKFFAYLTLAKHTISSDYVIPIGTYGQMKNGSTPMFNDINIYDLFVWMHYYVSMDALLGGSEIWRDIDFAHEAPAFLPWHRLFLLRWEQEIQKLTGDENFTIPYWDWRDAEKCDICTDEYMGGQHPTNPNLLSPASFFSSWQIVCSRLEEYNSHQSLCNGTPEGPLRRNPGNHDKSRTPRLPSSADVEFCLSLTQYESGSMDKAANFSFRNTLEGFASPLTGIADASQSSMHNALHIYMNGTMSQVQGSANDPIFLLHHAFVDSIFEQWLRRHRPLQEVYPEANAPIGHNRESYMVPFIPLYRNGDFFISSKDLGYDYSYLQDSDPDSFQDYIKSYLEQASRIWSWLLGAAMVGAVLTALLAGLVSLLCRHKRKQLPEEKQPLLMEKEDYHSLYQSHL
Method: To examine the direct effect of a drug on the catalytic activity of TYR, in vitro experiments were undertaken. Lysate of B16F10 cells stimulated with α-MSH for 24 h was used as a murine TYR preparation. Human TYR preparation was the lysate of human embryonic kidney 293 cells constitutively expressing human TYR (HEK293-TYR). […] The TYR activity assay mixture (200 μL) consisted of 100 mM sodium phosphate buffer (pH 6.8), TYR preparation (40 μg protein), a drug at various concentrations, 1.0 mM L-tyrosine, and 42 μΜ L-DOPA. For enzyme kinetic study, the concentrations of L-tyrosine plus L-DOPA were varied while their relative ratio was kept the same as the standard assay condition. […] The reactions were also performed in the absence of a TYR preparation to correct for the effects of non-enzymatic reactions. Enzyme activity was calculated as follows: activity (% control) = (C−D)/(A−B) × 100, where A and B are the absorbance changes of the control group with and without enzyme, respectively, while C and D are the absorbance changes of the test group with and without enzyme, respectively.

IC50 (human TYR; HEK293-TYR cell-free extract, L-tyrosine plus L-DOPA): 1100 nM
human TYR inhibitory effect (human TYR; each drug at 1.0 μM, library screening): potent TYR inhibitory effects
Structure (SMILES): O=C(NO)c1ccc(CC(=O)N(CCO)c2ccccc2)cc1 [K8, 4-((hydroxyamino)carbonyl)-N-(2-hydroxyethyl)-N-phenyl-benzeneacetamide]
relative viability (B16-F10 cells; drug 1.0 μM): without reducing cell viability
cytotoxicity (relative viability) (B16-F10 cells; drug at various concentrations): did not show toxic effects up to 10 μM
cellular TYR activity [1]: attenuated; also recorded: only partially lowered by 10 µM K8
DCT mRNA level [2]: not significantly affected
MITF mRNA expression [2]: not significantly affected
TYR mRNA level [2]: not significantly affected
TYRP1 mRNA level [2]: not significantly affected

From publication PMC7370187, “Screening of an Epigenetic Drug Library Identifies 4-((hydroxyamino)carbonyl)-N-(2-hydroxyethyl)-N-Phenyl-Benzeneacetamide that Reduces Melanin Synthesis by Inhibiting Tyrosinase Activity Independently of Epigenetic Mechanisms” (International Journal of Molecular Sciences, 2020)
